The compounds below were run on adjuvant-induced arthritis (assay: Established adjuvant-induced arthritis in rats (paw volume, uninjected left hind paw)). Conditions: Rattus norvegicus, po, read-out: Adjuvant Arthritis ED50 (effective dose for 50% decrease from control paw volume).
Type: in vivo, Male Charles River Lewis rats
From the text: To detect and compare the antiinflammatory activities of compounds in this series and standard drugs, the adjuvant arthritis test was used. A good correlation exists with results in this assay and human efficacy. (Federation Proceedings, 32, 2, 1973 "Models Used for the Study and Therapy of Rheumatoid Arthritis"--Symposium of the American Society for Pharmacology and Experimental Therapeutics).
ESTABLISHED ADJUVANT-INDUCED ARTHRITIS IN RATS
Male Charles River Lewis rats (130-150 grams) are injected subcutaneously in the plantar area of the right hind paw with 0.1 ml of adjuvant (Difco heat-killed, lyophilized Mycobacterium butyricum suspended in mineral oil 5 mg/ml). 20 Non-arthritic controls are injected with mineral oil. The animals are held for 2 weeks to allow development of arthritis. Paw volumes (uninjected, left hind paw) are measured and the adjuvant injected rats are culled and distributed to treatment groups of 10 of equal disease severity. Non-arthritic controls are distributed to 2 groups of 10. The rats are given oral doses of compound or PVA-Acacia (Polyvinyl Alcohol 1%, Gum acacia, U.S.P. 5%, Methylparaben 0.5%) or 0.25% methocel (10 ml/kg) by gavage on that day and on the 6 following days. One day after the last dose, the paw volumes (uninjected, left hind paw) are measured using a Ugo Basile Volume Differential Meter Model 7101. Inhibiting effects are calculated by the following formula: [formula]
Dose-response regression lines of the percent decrease are plotted on semi-log paper by visual fit and the effective dose for 50% decrease from control paw volume (ED50) is determined by inspection.
Compounds from this series were also compared to indomethacin, phenylbutazone, ibuprofen, and aspirin.

In order of falling ED50:
1. CC(=O)Oc1ccccc1C(=O)O [Aspirin, reference compound]  305 mg/kg
2. COc1ccc2c(c1)c(CC(=O)O)c(C)n2C(=O)c1ccc(Cl)cc1 [Indomethacin, reference compound]  0.3 mg/kg

Same assay, conditions: rat, oral gavage daily, 7 days; paw volume one day after last dose; read-out: Adjuvant Arthritis ED50 (effective dose for 50% decrease from control paw volume)

In order of rising ED50:
1. CS(=O)(=O)c1ccc(-c2[nH]c(Cl)cc2-c2ccc(F)cc2)cc1 [Example 3, 2-Chloro-4-(4-fluorophenyl)-5-(4-methylsulfonylphenyl)-1H-pyrrole]  0.5 mg/kg
2. CS(=O)(=O)c1ccc(-c2[nH]c(Br)c(Br)c2-c2ccc(F)cc2)cc1 [Example 6]  0.88 mg/kg
3. CS(=O)(=O)c1ccc(-c2[nH]c(Br)cc2-c2ccc(F)cc2)cc1 [Example 2, 2-Bromo-4-(4-fluorophenyl)-5-(4-methylsulfonylphenyl)-1H-pyrrole]  1.1 mg/kg
4. CS(=O)(=O)c1ccc(-c2[nH]c(Cl)c(Cl)c2-c2ccc(F)cc2)cc1 [Example 9]  1.5 mg/kg
5. Cn1c(Br)cc(-c2ccc(F)cc2)c1-c1ccc(S(C)(=O)=O)cc1 [Example 5, 1-Methyl-2-bromo-4-(4-fluorophenyl)-5-(4-methylsulfonylphenyl)pyrrole]  1.7 mg/kg
6. CCCCC1C(=O)N(c2ccccc2)N(c2ccccc2)C1=O [Phenylbutazone, reference compound]  10 mg/kg
7. CS(=O)(=O)c1ccc(-c2[nH]c(I)cc2-c2ccc(F)cc2)cc1 [Example 4, 2-Iodo-4-(4-fluorophenyl)-5-(4-methylsulfonylphenyl)-1H-pyrrole]  22 mg/kg
8. CC(C)Cc1ccc(C(C)C(=O)O)cc1 (stereo not drawn) [Ibuprofen, reference compound]  100 mg/kg

Same assay, conditions: rat, oral, daily dose 3 (mg/kg)

For CS(=O)(=O)c1ccc(-c2[nH]c(Cl)c(Br)c2-c2ccc(F)cc2)cc1 [Example 8, 2-Chloro-3-bromo-4-(4-fluorophenyl)-5-(4-methylsulfonylphenyl)-1H-pyrrole], the “% decrease from control paw volume at indicated daily dose” value was 45%.

Same assay, conditions: rat, oral, daily dose 9 (mg/kg)

In the case of CC(C)(C)OC(=O)n1c(Br)cc(-c2ccc(F)cc2)c1-c1ccc(S(C)(=O)=O)cc1 [Example 1, 1-tert-Butyloxycarbonyl-2-bromo-4-(4-fluorophenyl)-5-(4-methylsulfonylphenyl)pyrrole], the “% decrease from control paw volume at indicated daily dose” value was 44%.
